± gives the expanded uncertainty stated by the source.
Experiment: refractive index (Na D-line) (dimensionless); mn = molality of the nth substance listed, in mol/kg
Conditions: 308.15 K, 101 kPa, Liquid, Standard Abbe refractometry

| SMILES | refractive index (m1 = 0.034) | refractive index (m1 = 0.0682) | refractive index (m1 = 0.1015) | refractive index (m1 = 0.1424) | refractive index (m1 = 0.1771) | refractive index (m1 = 0.2157) | refractive index (m1 = 0.2524) | refractive index (m1 = 0.2847) | refractive index (m1 = 0.3319) | refractive index (m1 = 0.3674) | refractive index (m2 = 0) |
| --- | --- | --- | --- | --- | --- | --- | --- | --- | --- | --- | --- |
| O=C([O-])CC(O)(CC(=O)[O-])C(=O)[O-].[Na+].[Na+].[Na+] [trisodium citrate] + O | 1.3328 ± 0.0005 | 1.3345 ± 0.0005 | 1.3361 ± 0.0005 | 1.3379 ± 0.0005 | 1.3393 ± 0.0005 | 1.341 ± 0.0005 | 1.3425 ± 0.0005 | 1.3438 ± 0.0005 | 1.3456 ± 0.0005 | 1.3469 ± 0.0005 |  |
| O [water] + CCCCn1cc[n+](C)c1.[Br-] |  |  |  |  |  |  |  |  |  |  | 1.3311 ± 0.0005 |
| O [water] + O=C([O-])CC(O)(CC(=O)[O-])C(=O)[O-].[Na+].[Na+].[Na+] |  |  |  |  |  |  |  |  |  |  | 1.3311 ± 0.0005 |
